Source: patent US9512172B2, “Ethanol dependence of alpha1 antitrypsin C-terminal Lys truncation by basic carboxypeptidases” (Baxalta Incorporated, priority 2006, dated 2016)

Key:
CPN [1] = molecular target: T1, CPN (Homo sapiens, UniProt P15169); conditions: cited from earlier work
T1 sequence (P15169 21-458): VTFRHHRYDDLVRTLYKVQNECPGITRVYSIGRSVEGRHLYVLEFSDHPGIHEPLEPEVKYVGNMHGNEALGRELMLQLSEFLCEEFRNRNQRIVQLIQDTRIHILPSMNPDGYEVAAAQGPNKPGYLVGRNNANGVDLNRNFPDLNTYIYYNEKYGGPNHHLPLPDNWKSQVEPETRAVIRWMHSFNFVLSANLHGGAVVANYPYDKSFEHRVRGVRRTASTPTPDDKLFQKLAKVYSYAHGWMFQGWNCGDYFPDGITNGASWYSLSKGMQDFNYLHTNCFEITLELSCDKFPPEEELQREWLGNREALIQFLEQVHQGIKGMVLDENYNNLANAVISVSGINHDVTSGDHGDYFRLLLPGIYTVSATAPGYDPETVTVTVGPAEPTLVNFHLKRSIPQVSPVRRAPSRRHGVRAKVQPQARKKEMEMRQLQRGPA
T1 sequence (P22792 22-545 partner): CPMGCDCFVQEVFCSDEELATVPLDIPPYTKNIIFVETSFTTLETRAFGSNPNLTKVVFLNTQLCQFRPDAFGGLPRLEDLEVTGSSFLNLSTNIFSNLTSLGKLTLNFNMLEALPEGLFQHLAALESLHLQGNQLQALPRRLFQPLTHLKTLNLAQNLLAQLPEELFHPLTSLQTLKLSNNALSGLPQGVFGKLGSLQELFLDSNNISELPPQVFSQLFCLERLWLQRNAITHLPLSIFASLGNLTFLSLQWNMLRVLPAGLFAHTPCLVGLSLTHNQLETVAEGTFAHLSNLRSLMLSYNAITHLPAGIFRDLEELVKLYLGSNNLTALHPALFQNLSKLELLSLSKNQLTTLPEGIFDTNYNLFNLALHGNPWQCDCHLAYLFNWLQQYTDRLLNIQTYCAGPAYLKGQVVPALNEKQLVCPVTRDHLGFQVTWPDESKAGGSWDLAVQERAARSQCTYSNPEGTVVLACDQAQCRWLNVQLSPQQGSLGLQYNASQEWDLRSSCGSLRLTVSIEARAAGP

CPN present in the paste = molecular target: T2, CPN present in the paste (Homo sapiens, UniProt P15169); assay: Effect of CP inhibitors on C-terminal lysine truncation in dissolved, ethanol-treated IV-1 paste (IEF); type: biochemical
T2 construct: Cohn IV-1 precipitate is usually derived after ethanol fractionation of plasma; from tissue; host or cells: Cohn IV-1 paste (ethanol precipitate of plasma)
T2 sequence (P15169 21-458): T1 sequence (P15169 21-458)
T2 sequence (P22792 22-545 partner): T1 sequence (P22792 22-545 partner)
Method: Cohn IV-1 paste was dissolved in 2.6 volumes of 10 mM Tris-buffer at pH 8.8 and incubated for 30 min at 22° C. The suspension was made 40% in ethanol (by addition of 2.4 volumes of ethanol), stirred for a further 60 min, diluted with the same Tris-buffer to 10% ethanol and extracted for a further 6 h.
The following inhibitors were added in parallel during extraction and dilution with Tris-buffer: 100 mM 6-aminocaproic acid, 10 μM or 1 nM 2-mercaptomethyl-3-guanidinoethylthiopropanoic acid (a more specific inhibitor of CPN). The samples were characterized by high resolution isoelectric focusing.
For high resolution isoelectric focusing a new hybrid IEF method using IPG-Immobiline gels (GE Healthcare Bio-Sciences, pI 4.2-4.9, Uppsala, Sweden) was developed which is similar to that described by Weidinger^54. Samples were diluted with water to 0.5 mg A1PI/mL and 5 mM DTE was added. Samples (20 μl) were applied close to the cathode on the pre-focused gel and focused for 150 min (5000 Vh). For paste extracts focusing time was extended to 420 min. Gels were stained with Coomassie Brilliant Blue G-250 (BioRad, Hercules, USA) as described by Neuhoff^55. Blotting and immunostaining were done with a rabbit anti-A1PI antibody (Rabbit Anti-Human Alpha-1-Antitrypsin, #A0012, DakoCytomation, Glostrup, Denmark).

CPU = molecular target: T3, CPU (Homo sapiens, UniProt Q96IY4); conditions: cited from earlier work
T3 sequence (Q96IY4 115-423): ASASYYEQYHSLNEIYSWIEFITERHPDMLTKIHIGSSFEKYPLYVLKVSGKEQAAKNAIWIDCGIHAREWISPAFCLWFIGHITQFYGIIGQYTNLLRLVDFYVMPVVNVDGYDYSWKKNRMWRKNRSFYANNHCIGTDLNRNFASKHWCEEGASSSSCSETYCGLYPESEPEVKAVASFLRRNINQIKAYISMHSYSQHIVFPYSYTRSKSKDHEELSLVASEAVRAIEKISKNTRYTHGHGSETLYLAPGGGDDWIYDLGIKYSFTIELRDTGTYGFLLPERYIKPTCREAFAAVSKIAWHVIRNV

CPN [2] = molecular target: T1, CPN; conditions: at 10% ethanol
Method: The activity of the basic carboxypeptidases was measured with a HPLC-assisted assay as described^52. This assay is based on the cleavage of the synthetic substrate hippuryl-L-arginine. Released hippuric acid was determined with reverse phase high performance liquid chromatography (RP-HPLC). Briefly, to 10 μl of sample, 40 μl of 30 mM hippuryl-L-arginine (Bachem Feinchemikalien, Buchs, Switzerland) in 50 mM HEPES, pH 8.0, was added and incubated for 30 minutes at 37° C. in a water bath. Hippuryl-L-arginine cleavage was stopped by adding 50 μl of 1 M HCl. 10 μl of o-methyl hippuric acid (synthesized from methylbenzoyl chloride) serving as an internal standard was added afterwards. The hippuric acid (Bz-Gly, Fluka, Buchs, Switzerland) and o-methyl hippuric acid were extracted with ethyl acetate (300 μl). This layer was evaporated to dryness, redissolved in the mobile phase (10 mM KH2PO4, 10% acetonitrile, pH 3.5) and injected unto the column (C-18 Chromolith, performance 100-4.6 mm column (Merck, Darmstadt, Germany). The separation was done in isocratic mode and monitored at 228 nm. One unit of carboxypeptidase activity is defined as the amount of enzyme required to release 1 μmol of hippuric acid per min at 37° C. under the assay conditions described.

Row | Inhibition of Lys truncation induced by the procedure 40=>10% EtOH (CPN present in the paste; dissolved IV-1 paste, pH 8.8, 6 h) | Inhibition of lysine removal from A1PI (CPN present in the paste; inhibitor at 10 μmol/l) | Rate of substrate (Bz-Gly-Arg) cleavage by CPN (CPN [2]) | SMILES | Ki (CPN [1]) | Ki (CPU)
1 | dose-dependently | completely inhibited | – | N=C(N)NCCSCC(CS)C(=O)O (racemic) [DL-2-mercaptomethyl-3-guanidinoethylthio-propanoic acid] | 8.7 nM | 200 nM
2 | – | – | almost doubled | CCO [ethanol] | – | –
